Laboratory results from patent publication US11827628B2, “Compositions and methods for inhibition of the JAK pathway” (Rigel Pharmaceuticals, Inc., priority 2005, dated 2023).

System: up-regulation of ICAM-1 (CD54) by IFNγ in A549 lung epithelial cells
Test: A549 Epithelial Line Stimulated with IFNγ (ICAM-1 surface expression, FACS)
Format: cell-based, human
Conditions: A549 cells stimulated with IFNγ, ICAM-1 expression by FACS; read-out: IC50, Example 43
Summary of the method: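 ICAM-1 (CD54) flow cytometry on live-gated A549 cells, geometric mean versus dose giving EC50. Cells received IFNγ at 75 ng/mL for 24 h after a 1 h compound pre-treatment spanning 30 μM to 14 nM in medium with 5% FBS and 0.3% DMSO.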

| IC50 | Compound |
| --- | --- |
| 2.69 µM | Cc1ccc(Nc2ncc(F)c(Nc3ccc4c(c3)CCN4S(C)(=O)=O)n2)cc1S(N)(=O)=O [VII-61, N2-(3-Aminosulfonyl-4-methylphenyl)-5-fluoro-N4-[4-(1-methylsulfonyl)indolin-5-yl]-2,4-pyrimidinediamine] |

Same assay, conditions: A549 epithelial line stimulated with IFNγ; ICAM-1 expression by FACS; read-out: IC50, Example 43

| IC50 | Compound |
| --- | --- |
| 5.17 µM | COc1cc(Nc2ncc(F)c(Nc3ccc(OC(C)C#N)c(C)c3)n2)ccc1S(N)(=O)=O (racemic) [Compound I-64, Racemic N2-(4-Aminosulfonyl-3-methoxy)phenyl-N4-[4-(1-cyano)ethoxy-3-methyl]phenyl-5-fluoro-2,4-pyrimidinediamine] |
| 14.9 µM | Cc1ccc(Nc2ncc(F)c(Nc3ccc(NC(=O)CC#N)c(Cl)c3)n2)cc1S(N)(=O)=O [Compound I-83, N2-(3-Aminosulfonyl-4-methylphenyl)-N4-[3-chloro-4-(N-cyanoacetyl)aminophneyl]-5-fluoro-2,4-pyrimidinediamine] |
| 24.2 µM | Cc1ccc(Nc2ncc(F)c(Nc3ccc(Cn4ccnc4)cc3)n2)cc1S(N)(=O)=O [III-82, N2-(3-Aminosulfonyl-4-methylphenyl)-5-fluoro-N4-[4-(1-imidazolylmethyl)phenyl]-2,4-pyrimidinediamine] |
| 4.96 µM | CC(C#N)Oc1ccc(Nc2nc(Nc3ccc(F)c(S(N)(=O)=O)c3)ncc2F)cc1 (racemic) [Compound I-68, Racemic N2-(3-Aminosulfonyl-4-fluoro)phenyl-N4-[4-(1-cyano)ethoxy]phenyl-5-fluoro-2,4-pyrimidinediamine] |
| 4.86 µM | N#CCOc1cccc(Nc2nc(Nc3cccc(S(N)(=O)=O)c3)ncc2F)c1 [Compound I-4, N2-(3-Aminosulfonyl)phenyl-N4-(3-cyanomethoxy)phenyl-5-fluoro-2,4-pyrimidinediamine] |
| 4.62 µM | Cc1ccc(Nc2ncc(F)c(Nc3ccc(OC(C)C#N)cc3)n2)cc1S(N)(=O)=O (racemic) [Compound I-67, Racemic N2-(3-Aminosulfonyl-4-methyl)phenyl-N4-[4-(1-cyano)ethoxy]phenyl-5-fluoro-2,4-pyrimidinediamine] |
| 48.3 µM | NS(=O)(=O)c1cccc(Nc2ncc(F)c(Nc3ccc(Cn4ccnc4)cc3)n2)c1 [III-81, N2-(3-Aminosulfonylphenyl)-5-fluoro-N4-[4-(1-imidazolylmethyl)phenyl]-2,4-pyrimidinediamine] |
| 5.64 µM | Cc1cc(Nc2nc(Nc3ccc(F)c(S(N)(=O)=O)c3)ncc2F)ccc1OC(C)C#N (racemic) [Compound I-69, Racemic N2-(3-Aminosulfonyl-4-fluoro)phenyl-N4-[4-(1-cyano)ethoxy-3-methyl]phenyl-5-fluoro-2,4-pyrimidinediamine] |
| 5.56 µM | Cc1ccc(Nc2ncc(F)c(Nc3ccc(OC(C)(C)C#N)cc3)n2)cc1S(N)(=O)=O [Compound I-73, N2-(3-Aminosulfonyl-4-methyl)phenyl-N4-[4-(1-cyano-1-methyl)ethoxy]phenyl-5-fluoro-2,4-pyrimidinediamine] |
| 3.53 µM | Cc1cc(Nc2nc(Nc3ccc(C)c(S(N)(=O)=O)c3)ncc2F)ccc1OC(C)C#N (racemic) [Compound I-62, Racemic N2-(3-Aminosulfonyl-4-methyl)phenyl-N4-[4-(1-cyano)ethoxy-3-methyl]phenyl-5-fluoro-2,4-pyrimidinediamine] |
| 5.14 µM | CC(C)(C#N)Oc1ccc(Nc2nc(Nc3cccc(S(N)(=O)=O)c3)ncc2F)cc1 [Compound I-76, N2-(3-Aminosulfonyl)phenyl-N4-[4-(1-cyano-1-methyl)ethoxy]phenyl-5-fluoro-2,4-pyrimidinediamine] |
| 3.31 µM | Cc1ccc(Nc2ncc(F)c(Nc3cc(C)c(OC(C)C#N)c(C)c3)n2)cc1S(N)(=O)=O (racemic) [Compound I-72, Racemic N2-(3-Aminosulfonyl-4-methyl)phenyl-N4-[4-(1-cyano)ethoxy-3,5-dimethyl]phenyl-5-fluoro-2,4-pyrimidinediamine] |
| 3.27 µM | Cc1cc(Nc2nc(Nc3cccc(S(N)(=O)=O)c3)ncc2F)cc(C)c1OC(C)C#N (racemic) [Compound I-71, Racemic N2-(3-Aminosulfonyl)phenyl-N4-[4-(1-cyano)ethoxy-3,5-dimethyl]phenyl-5-fluoro-2,4-pyrimidinediamine] |
| 10.8 µM | CC(C)(C#N)Oc1ccc(Nc2nc(Nc3ccc(F)c(S(N)(=O)=O)c3)ncc2F)cc1 [Compound I-74, N2-(3-Aminosulfonyl-4-fluoro)phenyl-N4-[4-(1-cyano-1-methyl)ethoxy]phenyl-5-fluoro-2,4-pyrimidinediamine] |
| 34.3 µM | Cc1cc(Nc2nc(Nc3ccc(S(N)(=O)=O)cc3)ncc2F)cc(C)c1OC(C)C#N (racemic) [Compound I-63, Racemic N2-(4-Aminosulfonyl)phenyl-N4-[4-(1-cyano)ethoxy-3,5-dimethyl]phenyl-5-fluoro-2,4-pyrimidinediamine] |
| 12.9 µM | CCC(=O)NS(=O)(=O)c1cccc(Nc2ncc(F)c(Nc3ccc(OCc4nc(C)no4)cc3)n2)c1 [Compound I-273] |
| 8.58 µM | Cc1cc(Nc2nc(Nc3ccc(F)c(S(N)(=O)=O)c3)ncc2F)cc(C)c1OCC#N [Compound I-35, N2-(3-Aminosulfonyl-4-fluoro)phenyl-N4-(4-cyanomethoxy-3,5-dimethyl)phenyl-5-fluoro-2,4-pyrimidinediamine] |
| 36.7 µM | Cc1ccc(Nc2ncc(F)c(Nc3ccc(OCC#N)c(Cl)c3)n2)cc1S(N)(=O)=O [Compound I-43, N2-(3-Aminosulfonyl-4-methylphenyl)-N4-(3-chloro-4-cyanomethoxypheny)-5-fluoro-2,4-pyrimidinediamine] |
| 10.1 µM | CNS(=O)(=O)c1cc(Nc2ncc(F)c(Nc3ccc(Cc4ccncc4)cc3)n2)ccc1C [III-75, 5-Fluoro-N2-[3-(N-methylaminosulfony)-4-methylphenyl]-5-fluoro-N4-[4-(4-pyridinylmethyl)phenyl]-2,4-pyrimidinediamine] |
| 23.8 µM | Cc1cc(Nc2nc(Nc3cccc(S(N)(=O)=O)c3)ncc2F)cc(C)c1OCC(N)=O [Compound I-93, N4-(4-Aminocarbonylmethoxy-3,5-dimethyl)phenyl-N2-(3-aminosulfonyl)phenyl-5-fluoro-2,4-pyrimidinediamine] |
| 7.89 µM | Cc1cc(Nc2nc(Nc3ccc(S(N)(=O)=O)cc3)ncc2F)ccc1OC(C)C#N (racemic) [Compound I-60, Racemic N2-(4-Aminosulfonyl)phenyl-N4-[4-(1-cyano)ethoxy-3-methyl]phenyl-5-fluoro-2,4-pyrimidinediamine] |
| 3.43 µM | COc1cc(Nc2ncc(F)c(Nc3ccc(OC(C)C#N)cc3)n2)ccc1S(N)(=O)=O (racemic) [Compound I-70, Racemic N2-(4-Aminosulfonyl-3-methoxy)phenyl-N4-[4-(1-cyano)ethoxy]phenyl-5-fluoro-2,4-pyrimidinediamine] |
